What all share (assay type): ADME, organism-based, Sus scrofa
Common to all, as to settings: read-out: Stability

A short description of data set [1]: Metabolic stability in iv dosed pig plasma after 30 seconds.
Data set [2] can be described thus: Metabolic stability in iv dosed pig plasma after 2 mins.
A short description of data set [3]: Metabolic stability in iv dosed pig plasma after 10 mins.
A short description of data set [4]: Metabolic stability in iv dosed pig plasma after 30 mins.
Data set [5] is described as follows: Metabolic stability in iv dosed pig plasma after 50 mins.

Consider `[11CH3]n1cccc1C(=O)[C@@H](c1ccccc1)N1CCCC1`, for which, in data set [1], the remaining at 0.5 min was 99.7%. Also, in data set [2], the remaining at 2 min was 98%. Further, the remaining at 10 min in data set [3] is 68%. For the same molecule, the remaining at 0.5 h in data set [4] turned out to be 41%. In addition, in data set [5], the remaining at 50 min came out at 24%.

Consider `[11CH3]n1cccc1C(=O)[C@H](c1ccccc1)N1CCCC1`, for which the remaining at 0.5 min in data set [1] came to 99.7%. In data set [2], the remaining at 2 min was found to be 98%. Also, the remaining at 10 min in data set [3] worked out at 68%. Further, in data set [4], the remaining at 0.5 h came to 41%. In data set [5], the remaining at 50 min came to 24%.

The record behind these values is ChEMBL document CHEMBL1142324, “Synthesis and cerebral uptake of 1-(1-[(11)C]methyl-1H-pyrrol-2-yl)-2-phenyl-2-(1-pyrrolidinyl)ethanone, a novel tracer for positron emission tomography studies of monoamine oxidase type A” (J Med Chem, 2008).
